Read-outs that look alike come from different tables or passages of the source. A value given as a limit tells only on which side of the number the result lay.

Usually IC50 stands for the concentration that inhibits the measured activity by half.

One data set has as its system HIV-1RF. Description: XTT cytoprotection assay (antiviral activity). The data set is classed as cell-based. The settings on record: for antiviral activity: result in words. An excerpt:
(§1) One exemplary means to determine antiviral activity is with CEM-SS cells and virus (e.g., HIV-1RF) (MOI = 0.01) using the XTT (2,3-bis[2-methoxy- 4-nitro-5-sulfophenyl] -5- [(phenylamino)carbonyl]-2H-tetrazolium hydroxide) cytoprotection assay, as described by Rice (1993) PNAS 90:9721-9724, and Rice (1997) Antimicrob. Agents Chemother. 41:419-426. Briefly, cells are infected with HIV-1RF (or other virus to be tested) in the presence of various dilutions of test compounds (thiolesters and controls). The cultures are incubated for seven days. During this time control cultures without protective compounds (i.e., compounds with anti-viral activity) replicate virus, induce syncytia, and result in about 90% cell death. The cell death is measured by XTT dye reduction. XTT is a soluble tetrazolimn dye that measures mitochondrial energy output, similar to MTT. Positive controls using dextran sulfate (an attachment inhibitor) or 3'-Azido -2'-3'-dideoxythymidine, AZT (a reverse transcriptase inhibitor) are added to each assay. Individual assays are done in duplicate using a sister plate method.
(§2) Effective antiviral concentrations providing 50% cytoprotection (EC50), and cellular growth inhibitory concentrations causing 50% cytotoxicity (IC50) are calculated.
For orientation: Formazan colour is commonly taken as a measure of viable cells.

A further data set concerns CEM-SS cells. Description: cells. The data set is classed as cell-based. The following applies: for IC50: Homo sapiens, CEM-SS; for toxicity at the high test dose: high test dose of 316 µM.
Excerpt: as §1, §2

Data set [1] has as its target T1, recombinant HIV-1 NCp7 protein (Human immunodeficiency virus type 1 group M subtype B, UniProt P03347).
T1 construct: within the nucleocapsid p7 (NCp7) protein portion of the polyprotein
As to the kind of experiment: Trp37 zinc finger fluorescence (zinc ejection) assay. The settings on record: for zinc finger reactivity: result in words. The data set is classed as biochemical. The procedure:
Zinc finger reactivity was measured using a Zn specific fluorochrome, TSQ, N-(6-methoxy-8-quinolyl) -p-toluenesulfonamide, assay or a Trp37 zinc finger fluorescence assay. Fluorescent measurements of the Trp37 residue in the C-terminal finger of recombinant HIV-1 NCp7 protein were performed as described by Rice (1995) Science 270:1194-1197; Rice (1997) Antimicrob. Agents Chemother. 41:419-426. Measurement of Zn ejection from both fingers was measured using the Zn-selective fluorchrome probe TSQ (Molecular Probes, Eugene OR) as described by Rice (1996) J. Med. Chem 39:3606-3616. Measurement of the ability of NCp7 to bind to a DNA oligomer, a 44 mer: […] (SEQ ID NO:1), analogous to the HIV-1 RNA packaging site was carried out as described by Huang (1998) J. Med. Chem. 41:1371-1381, see also, Rossio (1998) HIV Pathogenesis and Treatment: Keystone Symposium on Molecular and Cellular Biology, Abstract # 4082. Briefly, 50 nM NCp7 was treated with test compounds for 1 hour at RT in […] buffer containing 10% glycerol and 50 mM Tris-HCl (pH 7.5). Labeled oligomer (0.1 picomole, end labeled [^32P]) was added in an equal volume of buffer containing 10% glycerol, 50 mM Tris-HCl (pH 7.5), 400 mM KCl and 40 mM MgCl2. The reaction was continued for 15 min at room temperature, and a total of […] (or 1/4 of the total reaction volume) was separated on nondenaturing 4.5% polyacrylamide gels in 0.5X Tris-Borate electrophoresis buffer. NCp7-oligomer complexes were visualized by autoradiography.
Changes in the intrinsic fluorescence of aromatic protein moieties are commonly used to monitor a reaction which involves a change in protein conformation. In the present invention, fluorescence can be used to monitor the loss of metal ion from a zinc finger, e.g., the loss of zinc from a CCHC retroviral zinc finger protein, after contact with a thiolester of the invention. The intrinsic fluorescence of Trp 37 in the second zinc finger of HIV-1 NC protein has been used to monitor nucleic acid binding and conformation of the zinc finger complex (see, Summers (1992) supra).
Zinc ejection is measured by the ability of compounds to chemically attack the cysteines in purified NCp7 protein resulting in a loss of fluorescence due to the movement of the tryptophan 37 residue from an exposed to an internal position on the protein. Zinc ejection is measured and expressed as either percent decrease in total fluorescence or decrease in relative fluorescence units per min during a 30 min assay (RFU/min). A thiolester is considered within the scope of the invention if any amount of zinc ejection is detected. For example, compound 50 has a zinc ejection rate of 0.86 RFU/min.

The mark [2] stands for this setting: Human immunodeficiency virus 1, read-out: Antiviral Activity EC50.
Where [3] appears, read: read-out: Antiviral Activity IC50.
[4] abbreviates: Table 3, average decrease in relative fluorescence.
Where [5] appears, read: Human immunodeficiency virus 1, read-out: EC50 (concentration inhibiting 50% virus replication).
Where [6] appears, read: Human immunodeficiency virus 1, B104.
The mark [7] stands for this setting: Table 4, average decrease in relative fluorescence units over 30 min.
Setting [8] is: read-out: Antiviral Activity IC50%.
Setting [9] is: Table 5, average decrease in relative fluorescence units over 30 min.

As to `CC(=O)Nc1ccc(S(=O)(=O)Nc2ccc(S(=O)(=O)c3ccc(NC(=O)c4ccccc4SSc4ccccc4C(=O)Nc4ccc(S(=O)(=O)c5ccc(NS(=O)(=O)c6ccc(NC(C)=O)cc6)cc5)cc4)cc3)cc2)cc1` [Compound 28D], the EC50 with HIV-1RF (setting [2]) worked out at 1 µM. The concentration for half-maximal inhibition (IC50) in the data set on CEM-SS cells (setting [3]) was 12.7 µM. Also, in data set [1] (setting [4]), the “Zinc Finger Reactivity RFU/ min” value was determined as 5.9 RFU/ min.

For `COc1ccc(C(=O)Nc2ccc(S(=O)(=O)c3ccc(NC(=O)c4ccccc4SSc4ccccc4C(=O)Nc4ccc(S(=O)(=O)c5ccc(NC(=O)c6ccc(OC)cc6)cc5)cc4)cc3)cc2)cc1` [Compound 29D], in the data set with HIV-1RF (setting [2]), the EC50 came out at 3.8 µM. Further, the half-maximal inhibitory concentration (IC50) in the data set on CEM-SS cells (setting [3]) came out at 79.6 µM. In addition, the “Zinc Finger Reactivity RFU/ min” value in data set [1] (setting [4]) was found to be 6.9 RFU/ min.

Regarding `O=C(Nc1ccc(S(=O)(=O)c2ccc([N+](=O)[O-])cc2)cc1)c1ccccc1SSc1ccccc1C(=O)Nc1ccc(S(=O)(=O)c2ccc([N+](=O)[O-])cc2)cc1` [Compound 31D], the EC50 in the data set on HIV-1RF (setting [2]) and with HIV-1RF (setting [5]) was 12.2 µM in each case. In addition, the IC50 with CEM-SS cells (setting [3]) is greater than 316 µM. Also, in the data set with CEM-SS cells, the “toxicity at the high test dose” value is “no toxicity”. Also, the “Zinc Finger Reactivity RFU/ min” value in data set [1] (setting [4]) was found to be 2.9 RFU/ min.

For the compound `O=C(Nc1ccc(S(=O)(=O)c2ccc(NC(=O)c3ccccc3SSc3ccccc3C(=O)Nc3ccc(S(=O)(=O)c4ccc(NC(=O)c5ccc([N+](=O)[O-])cc5)cc4)cc3)cc2)cc1)c1ccc([N+](=O)[O-])cc1` [Compound 32D], in the data set on HIV-1RF (setting [2]), the EC50 was determined as 78 µM. Besides, the IC50 in the data set with CEM-SS cells (setting [3]) is greater than 316 µM. Further, in data set [1] (setting [4]), the “Zinc Finger Reactivity RFU/ min” value stood at 2.9 RFU/ min.

For `O=C(Nc1ccc(S(=O)(=O)c2ccc(NC(=O)c3ccccc3SSc3ccccc3C(=O)Nc3ccc(S(=O)(=O)c4ccc(NC(=O)c5cc([N+](=O)[O-])cc([N+](=O)[O-])c5)cc4)cc3)cc2)cc1)c1cc([N+](=O)[O-])cc([N+](=O)[O-])c1` [Compound 33D], in the data set on HIV-1RF (setting [2]), the EC50 worked out at 240 µM. In the data set with CEM-SS cells (setting [3]), the half-maximal inhibitory concentration (IC50) was greater than 316 µM. Further, in data set [1] (setting [4]), the “Zinc Finger Reactivity RFU/ min” value is on record as 1.6 RFU/ min.

Take `O=C(Nc1ccc(S(=O)(=O)c2ccc(NS(=O)(=O)Cc3ccccc3[N+](=O)[O-])cc2)cc1)c1ccccc1SSc1ccccc1C(=O)Nc1ccc(S(=O)(=O)c2ccc(NS(=O)(=O)Cc3ccccc3[N+](=O)[O-])cc2)cc1` [Compound 34D]: in the data set on HIV-1RF (setting [5]), the EC50 was 12.3 µM. Besides, the antiviral activity entry in the data set with HIV-1RF is on record as “significant antiviral activity”. The 50% inhibitory concentration (IC50) in the data set with CEM-SS cells (setting [3]) was greater than 316 µM. The “toxicity at the high test dose” value in the data set with CEM-SS cells is recorded as “no toxicity”. Moreover, in data set [1] (setting [4]), the “Zinc Finger Reactivity RFU/ min” value is 1.5 RFU/ min.

On to `Nc1cccc(S(=O)(=O)c2cccc(NC(=O)c3ccccc3SSc3ccccc3C(=O)Nc3cccc(S(=O)(=O)c4cccc(N)c4)c3)c2)c1` [Compound 35], for which the EC50 with HIV-1RF (setting [6]) and in the data set with HIV-1RF (setting [2]) was 1 µM throughout. Further, the half-inhibitory concentration (IC50) in the data set on CEM-SS cells (setting [3]) stood at 81.5 µM. Moreover, the “zinc finger reactivity / zinc ejection rate” value in data set [1] was 0.92 RFU/min. Also, in data set [1] (setting [7]), the “Zinc Finger Reactivity RFU/ min” value is recorded as 0.92 RFU/min.

For `CC(=O)Nc1cccc(S(=O)(=O)c2cccc(NC(=O)c3ccccc3SSc3ccccc3C(=O)Nc3cccc(S(=O)(=O)c4cccc(NC(C)=O)c4)c3)c2)c1` [Compound 36], the EC50 in the data set on HIV-1RF (setting [6]) and with HIV-1RF (setting [2]) was 0.62 µM in each case. Moreover, the IC50 in the data set on CEM-SS cells (setting [3]) came to 5.9 µM. In addition, the “zinc finger reactivity / zinc ejection rate” value in data set [1] was determined as 2 RFU/min. Moreover, the “Zinc Finger Reactivity RFU/ min” value in data set [1] (setting [7]) is 2 RFU/min.

Consider `CC(=O)NS(=O)(=O)c1ccc(NC(=O)c2ccccc2NC(=O)CCCl)cc1` [Compound 37, N-[2-(3-chloro-propionamido)benzoyl]sulfacetamide], for which the antiviral activity result in the data set with HIV-1RF is “neither had appreciable antiviral activity”. The concentration for half-maximal inhibition (IC50) in the data set with CEM-SS cells (setting [8]) is greater than 316 µM. In addition, the “Zinc Finger Reactivity RFU/ min” value in data set [1] (setting [9]) is reported as “RFU/ min^b 2.0”. The zinc finger reactivity entry in data set [1] is given as “modest zinc finger reactivity”.

Turning to `CC(=O)NS(=O)(=O)c1ccc(NC(=O)c2cccc(NC(=O)CCCl)c2)cc1` [Compound 38], the EC50 with HIV-1RF (setting [2]) turned out to be 38 µM. In addition, the antiviral activity result in the data set with HIV-1RF is recorded as “neither had appreciable antiviral activity”. Moreover, the IC50 in the data set with CEM-SS cells (setting [8]) was 103 µM. For the same compound, in data set [1] (setting [9]), the “Zinc Finger Reactivity RFU/ min” value is listed as 3.9 RFU/ min. The zinc finger reactivity entry in data set [1] was “modest zinc finger reactivity”.

Source of the values: EP1087941B9, “THIOLESTERS AND USES THEREOF” (THE UNITED STATES OF AMERICA, as represented by THE …, priority 1998, dated 1999).
